From ChEMBL document CHEMBL6109095, “Impact of fixed phosphorus position on activity of triazole bisphosphonates as geranylgeranyl diphosphate synthase inhibitors” (Bioorg Med Chem, 2025)
Calls of active or inactive are those of the source. The rule behind the calls is not given here.

What was measured:
[1] = biological target: T1, Geranylgeranyl pyrophosphate synthase (Homo sapiens) (UniProt O95749); experiment: Inhibition of GGDPS in human RPMI-8226 cells assessed as lowest effective concentration required for increase in intracellular lambda chain level after 48 hrs by ELISA; assay type: cell-based
T1 sequence (whole entry): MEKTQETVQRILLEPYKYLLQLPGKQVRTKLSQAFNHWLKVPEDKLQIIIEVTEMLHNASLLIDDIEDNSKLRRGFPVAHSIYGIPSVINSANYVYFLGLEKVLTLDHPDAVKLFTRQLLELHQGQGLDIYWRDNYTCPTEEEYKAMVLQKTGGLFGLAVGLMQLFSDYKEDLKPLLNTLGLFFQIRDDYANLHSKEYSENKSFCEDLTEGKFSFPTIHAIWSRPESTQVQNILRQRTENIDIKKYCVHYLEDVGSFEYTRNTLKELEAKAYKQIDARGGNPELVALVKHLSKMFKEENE

[2] = biological target: T1, Geranylgeranyl pyrophosphate synthase (Homo sapiens); experiment: Inhibition of GGDPS in human 143B cells assessed as lowest effective concentration required to show unmodified Rap1a band measured after 48 hrs by immunoblot analysis; assay type: cell-based
[3] = biological target: T1, Geranylgeranyl pyrophosphate synthase (Homo sapiens); experiment: Inhibition of GGDPS in human MM1.S cells assessed as appearance of unmodified Rap1a band at 1 to 100 uM measured after 48 hrs by immunoblot analysis; assay type: cell-based; conditions: dose 1-100 µM
[4] = Apparent permeability of the compound by PAMPA; assay type: ADME
[5] = biological target: T1, Geranylgeranyl pyrophosphate synthase (Homo sapiens); experiment: Inhibition of GGDPS in human RPMI-8226 cells assessed as lowest effective concentration required to show unmodified Rap1a band measured after 48 hrs by immunoblot analysis; assay type: cell-based
[6] = biological target: T2, Geranylgeranyl pyrophosphate synthase (Homo sapiens, UniProt O95749); experiment: Inhibition of recombinant GGDPS (unknown origin) using [14C] IPP and FPP as substrate preincubated for 10 mins followed by substrate addition and measured after 30 mins by scintillation counting method
T2 sequence (O95749 whole entry): T1 sequence (whole entry)

[7] = biological target: T1, Geranylgeranyl pyrophosphate synthase (Homo sapiens); experiment: Inhibition of GGDPS in human MG-63 cells assessed as lowest effective concentration required to show unmodified Rap1a band measured after 48 hrs by immunoblot analysis; assay type: cell-based
[8] = biological target: T1, Geranylgeranyl pyrophosphate synthase (Homo sapiens); experiment: Inhibition of GGDPS in human SAOS-2 cells assessed as lowest effective concentration required to show unmodified Rap1a band measured after 48 hrs by immunoblot analysis; assay type: cell-based
[9] = biological target: T1, Geranylgeranyl pyrophosphate synthase (Homo sapiens); experiment: Inhibition of GGDPS in human MM1.S cells assessed as appearance of unmodified Rap1a band measured after 48 hrs by immunoblot analysis; assay type: cell-based
[10] = biological target: T1, Geranylgeranyl pyrophosphate synthase (Homo sapiens); experiment: Inhibition of GGDPS in human MM1.S cells assessed as lowest effective concentration required to show unmodified Rap1a band measured after 48 hrs by immunoblot analysis; assay type: cell-based
RPMI-8226 = experiment: Cytotoxicity against human RPMI-8226 cells assessed as reduction in cell viability up to 10 uM measured after 48 hrs by MTT assay; assay type: functional, cell-based
143B = experiment: Cytotoxicity against human 143B cells assessed as reduction in cell viability up to 10 uM measured after 48 hrs by MTT assay; assay type: functional, cell-based
[11] = biological target: T1, Geranylgeranyl pyrophosphate synthase (Homo sapiens); experiment: Inhibition of GGDPS in human 143B cells assessed as appearance of unmodified Rap1a band at 0.1 to 1 uM measured after 48 hrs by immunoblot analysis; assay type: cell-based; conditions: dose 0.1-1 µM
[12] = biological target: T1, Geranylgeranyl pyrophosphate synthase (Homo sapiens); experiment: Inhibition of GGDPS in human MG-63 cells assessed as appearance of unmodified Rap1a band at 0.1 to 1 uM measured after 48 hrs by immunoblot analysis; assay type: cell-based; conditions: dose 0.1-1 µM
[13] = biological target: T1, Geranylgeranyl pyrophosphate synthase (Homo sapiens); experiment: Inhibition of GGDPS in human SAOS-2 cells assessed as appearance of unmodified Rap1a band at 0.1 to 1 uM measured after 48 hrs by immunoblot analysis; assay type: cell-based; conditions: dose 0.1-1 µM
[14] = biological target: T1, Geranylgeranyl pyrophosphate synthase (Homo sapiens); experiment: Inhibition of GGDPS in human RPMI-8226 cells assessed as appearance of unmodified Rap1a band up to 100 uM measured after 48 hrs by immunoblot analysis; assay type: cell-based
[15] = biological target: T1, Geranylgeranyl pyrophosphate synthase (Homo sapiens); experiment: Inhibition of GGDPS in human RPMI-8226 cells assessed as increase in intracellular lambda chain level up to 100 uM after 48 hrs by ELISA; assay type: cell-based

Structure (SMILES) | LED [1] | LED [2] | LED [5] | IC50 [6] | LED [7] | LED [8] | other results
CC(C)=CCC/C(C)=C/CCn1cc(C2CC2(P(=O)([O-])[O-])P(=O)([O-])[O-])nn1.[Na+].[Na+].[Na+].[Na+] (stereo unspecified) | 100 µM | 5 µM | 100 µM | 0.89 µM | 5 µM | 5 µM | inhibition [3]: Not active; No Appreciable Activity Observed; Papp [4]: 0.061 10^-6 cm/s
CC(C)=CCCC(C)CCCn1cc(C=C(P(=O)(O)O)P(=O)(O)O)nn1 (stereo unspecified) | 50 µM | – | 50 µM | > 100 µM | – | – | –
CC(C)=CCCC(C)=CCCn1cc(CC(P(=O)(O)O)P(=O)(O)O)nn1 | 0.03 µM | – | 0.03 µM | – | – | – | –
CC(C)=CCC/C(C)=C/CCn1cc(C2CC2(P(=O)(OCOC(=O)C(C)(C)C)OCOC(=O)C(C)(C)C)P(=O)(OCOC(=O)C(C)(C)C)OCOC(=O)C(C)(C)C)nn1 (stereo unspecified) | 5 µM | 5 µM | 5 µM | – | 5 µM | 5 µM | inhibition [9]: Not active; No Evidence Of Disruption Of Geranylgeranylation Was Observed
CC(C)=CCCC(C)=CCn1cc(C2OC2(P(=O)(O)O)P(=O)(O)O)nn1 (stereo unspecified) | 5 µM | 5 µM | 5 µM | 11 µM | 5 µM | 0.5 µM | LED [10]: 5 µM
CC(C)=CCCC(C)CCCn1cc(CC(P(=O)(O)O)P(=O)(O)O)nn1 (stereo unspecified) | 10 µM | – | 10 µM | 25.1 µM | – | – | –
CC(C)=CCC/C(C)=C/CCn1cc(C=C(P(=O)(O)O)P(=O)(O)O)nn1 | 0.25 µM | 0.25 µM | 0.25 µM | 0.4 µM | 0.25 µM | 0.01 µM | LED [10]: 0.25 µM; Activity (RPMI-8226): Active; Activity (143B): Active
CC(C)=CCC/C(C)=C\CCn1cc(C2OC2(P(=O)(O)O)P(=O)(O)O)nn1 (stereo unspecified) | 2.5 µM | – | 2.5 µM | 2.36 µM | – | – | inhibition [11]: Active; inhibition [12]: Active; inhibition [13]: Active
CC(C)=CCCC(C)=CCn1cc(C=C(P(=O)(O)O)P(=O)(O)O)nn1 | 0.25 µM | – | 0.25 µM | – | – | – | –
CC(C)=CCC/C(C)=C/CCn1cc(CC(P(=O)(O)O)P(=O)(O)O)nn1 | 0.09 µM | – | 0.09 µM | – | – | – | –
CC(C)=CCC/C(C)=C\CCn1cc(C2CC2(P(=O)([O-])[O-])P(=O)([O-])[O-])nn1.[Na+].[Na+].[Na+].[Na+] (stereo unspecified) | 100 µM | 50 µM | 100 µM | 2.87 µM | 50 µM | 50 µM | inhibition [3]: Not active; No Appreciable Activity Observed; Papp [4]: 0.283 10^-6 cm/s
CC(C)=CCC/C(C)=C/CCn1cc(C2OC2(P(=O)(O)O)P(=O)(O)O)nn1 (stereo unspecified) | – | – | – | 0.45 µM | – | – | inhibition [11]: Active; inhibition [14]: inactive; inhibition [15]: inactive; inhibition [12]: Active; inhibition [13]: Active
CC(C)=CCC/C(C)=C\CCn1cc(C=C(P(=O)(O)O)P(=O)(O)O)nn1 | 0.25 µM | 0.25 µM | 0.25 µM | 0.37 µM | 0.25 µM | 0.01 µM | LED [10]: 0.25 µM; Activity (RPMI-8226): Active; Activity (143B): Active
CC(C)=CCCC(C)CCCn1cc(C2CC2(P(=O)(O)O)P(=O)(O)O)nn1 (stereo unspecified) | – | – | – | > 100 µM | – | – | inhibition [14]: inactive; inhibition [15]: inactive
CC(C)=CCC/C(C)=C\CCn1cc(CC(C)(P(=O)(O)O)P(=O)(O)O)nn1 | – | – | 0.025 µM | – | – | – | –
CC(C)=CCCC(C)=CCn1cc(C2CC2(P(=O)(O)O)P(=O)(O)O)nn1 (stereo unspecified) | 0.5 µM | – | 0.5 µM | – | – | – | –
CC(C)=CCC/C(C)=C/CCn1cc(CC(C)(P(=O)(O)O)P(=O)(O)O)nn1 | 0.02 µM | – | 0.02 µM | – | – | – | –
CC(C)=CCCC(C)=CCn1cc(CC(P(=O)(O)O)P(=O)(O)O)nn1 | 0.5 µM | – | 0.5 µM | – | – | – | –
